Results published in article PMC12655551, “Design, Synthesis, and Evaluation of Pyrrole-Based Selective MAO-B Inhibitors with Additional AChE Inhibitory and Neuroprotective Properties Identified via Virtual Screening” (Pharmaceuticals, 2025).

Key:
[1] = tested on: isolated rat brain synaptosomes; test: 6-OHDA-induced neurotoxicity in isolated rat brain synaptosomes; assay type: cell-based; settings: 150 μM, vs non-treated synaptosomes
Protocol: (§1) Two types of buffers were used for the isolation of the rat brain synaptosomes and mitochondria. Buffer A was 5 mM HEPES and 0.32 M Sucrose; Buffer B was 290 mM NaCl, 0.95 mM MgCl2 × 2H2O, 10 mM KCl, 2.4 mM CaCl2 × 2H2O, 2.1 mM NaH2PO4, 44 mM HEPES, 13 mM D-Glucose. For the gradient centrifugation, Percoll reagent was used. A stock solution of 90% Percoll was used to prepare 16%, 10% and 7.5% solutions. All the solutions were used as described below. Immediately after harvesting, synaptosomes, microsomes, and mitochondria were incubated with the exam compounds for 1 h. For assessing the possible neurotoxicity of the most MAOB active compounds, the sub-cellular fractions were incubated with 100 µM of them, and for evaluating their possible neuroprotective and antioxidant activities in different models of neurotoxicity, the sub-cellular fractions were incubated with 50µM of them. The protein measurement of all the sub-cellular fractions was made by the method of Lowry et al., 1951 [57].
The synaptosomes were prepared from rat brains by multiple sub-cellular fractionation using a Percoll gradient.
This in vitro model resembles the neurodegenerative processes occurring in PD. Dopamine metabolism and oxidation led to the formation of reactive oxygen species (ROS) and reactive quinones. These processes were catalyzed by the MAOB enzyme. They induced dopamine neurotoxicity and neurodegeneration. The synaptosomes were incubated with 150 μM 6-OHDA for 1 h.
After the incubation, the synaptosomes were centrifuged three times at 15,000× g for 1 min. MTT-test was performed to determine synaptosomal vitality by the method described by Mungarro-Menchaca et al..
The level of GSH was determined by measuring the non-protein SH-groups after precipitation of the proteins with trichloroacetic acid (TCA). The presence of thiols in the supernatant was determined using Elmman’s reagent. The resulting yellow color was measured spectrophotometrically (λ = 412 nm).

[2] = tested on: isolated rat brain mitochondria; test: t-BuOOH-induced oxidative stress in isolated rat brain mitochondria; assay type: cell-based; settings: 75 μM, vs non-treated mitochondria
Protocol: as §1
The mitochondria were prepared by multiple differential fractionation using a Percoll gradient.
The mitochondria were incubated with 75 μM t-BuOOH [57].
After incubation of the mitochondria, 0.3 mL 0.2% TBA and 0.25 mL sulfuric acid (0.05 M) were added to stop the reaction. The tubes were maintained at 100 °C for 30 min. In the next stage, centrifugation of the tubes was carried out at 3500× g for 10 min. Assessment of the total quantity of MDA formed in each sample was measured in the supernatant at 532 nm.
After incubation of mitochondria, 0.04% DTNB was mixed with the mitochondrial suspensions in 0.1 M phosphate buffer (pH 7.4). The absorbance of the yellow product was measured at 412 nm.

SMILES | decrease of GSH level by the toxic agent alone [1] [%] | decrease of synaptosomal viability by the toxic agent alone [1] [%] | decrease of GSH level by the toxic agent alone [2] [%] | increase of MDA production by the toxic agent alone [2] [%]
NCCc1cc(O)c(O)cc1O [Compound 6-OHDA, 6-hydroxydopamine, reference compound] | 50 | 50 |  | 
CC(C)(C)OO [t-BuOOH, tert-butyl hydroperoxide, reference compound] |  |  | 50 | 150
